Like-named read-outs stand apart in the source and are kept apart here.
Legend:
[1] = system: Wnt activity (Sp5-Luc reporter in SW480 cells); assay: Screening assay for Wnt activity: Sp5-Luc reporter gene assay in SW480 colon carcinoma cells; type: cell-based, human; settings: 36 to 48 hours
Outline: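 EC50 values come from a variable-slope four-parameter fit of luminescence normalized to DMSO-only wells. The read-out follows 36–48 h incubation at 37 °C, 5% CO2, in DMEM containing 1% fetal bovine serum. Cells are hygromycin-selected SW480 stably expressing firefly luciferase under a Wnt-responsive Sp5 promoter (eight TCF/LEF sites).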

DYRK1A kinase = DYRK1A kinase (Homo sapiens (Human), UniProt Q13627); assay: DYRK1A kinase assay (Ser/Thr 18 peptide Z-lyte FRET); type: biochemical; settings: read-out: EC50 (method: IC50)
Outline: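 Kinase reactions with compound ran 1 h at room temperature in duplicate, and development reagent was then added for another hour.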

GSK3β kinase = GSK3β kinase (Homo sapiens (Human), UniProt P49841); assay: GSK3β kinase assay (Ser/Thr 09 peptide Z-lyte FRET); type: biochemical; settings: read-out: EC50 (method: IC50)
Outline: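 Non-radioactive Z-lyte FRET read-out, kinase activity expressed as coumarin/fluorescein emission ratio. Compounds incubated with the reaction mixture one hour at room temperature in duplicate, then development buffer added for another hour. IC50 from non-linear regression of dose-response curves.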

[2] = system: SW480 colon carcinoma cells; assay: Cell viability assay (CellTiter-Glo) in SW480 colon carcinoma cells; type: cell-based, human; settings: four days
Outline: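 Viability was taken from CellTiter-Glo ATP luminescence, read about 12 min after reagent addition, relative to DMSO controls. The cells were Sp5-Luc reporter SW480 colon carcinoma cells, 2,000/well in 1% FBS DMEM, exposed to compound for four days at 37 °C.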

[3] = system: primary human fibroblasts derived from IPF patients (LL29 cells); assay: Inhibition of the fibrotic process: αSMA staining in TGF-β1 treated LL29 fibroblasts; type: cell-based; settings: LL29 cells, TGF-β1 20 ng/mL, 4 days, % αSMA positive cells
Outline: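 LL29 fibroblasts from IPF patients, in F12 medium with 1% FBS, treated with TGF-β1 plus compound; TGF-β1 with DMSO as positive control, DMSO alone as negative control. After 4 days' incubation, SYTOX green nucleic acid stain added at 1 μM final, 30 min at room temperature.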

IL-6 = IL-6 inhibition in LPS-stimulated human peripheral blood mononuclear cells (HTRF); type: cell-based; settings: for EC50: huPBMCs, LPS 50 ng/mL, 22 hours, IL-6 HTRF; for inhibition at 10 µM: read-out: percent inhibition at 10 μM
Outline: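 HTRF 665/620 nm ratio, read after 3 h antibody incubation at room temperature, quantified IL-6 released by fresh human PBMCs (1×10e6 cells/mL, 1% FBS-RPMI). The cells got compound, then 50 ng/mL LPS at 2 h, followed by a further 22 h at 37° C. EC50 came from DMSO-normalized readings run in duplicate.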

[4] = system: primary human mesenchymal stem cells (hMSCs); assay: Tenocyte differentiation assay (SCXA-positive cells) in hMSCs; type: cell-based; settings: for percent in parentheses under EC50 >100: given for EC50 >100 μM, meaning not defined in this example; for EC50: hMSCs, 4 days, SCXA positive cells
Description: Representative compounds were screened using primary human mesenchymal stem cells (hMSCs) to determine their ability to induce tenocyte differentiation (process by which tendon is developed).
Primary human mesenchymal stem cells (hMSCs) were purchased from Lonza (Walkersville, Md.) and expanded in Mesenchymal Stem Cell Growth Media (Lonza). Cells between passage 3 and 6 were used for the experiments.
Cells were fixed using 4% formaldehyde (Electron Microscopy Sciences), and stained with anti-Sclerasis (anti-SCXA) antibodies (Abgent, San Diego, Calif.) [Webb S., et.al., Retinoic acid receptor signaling preserves tendon stem cell characteristics and prevents spontaneous differentiation in vitro, Stem Cell Research & Therapy 2016, 7:45] overnight at 4° C. […] Number of cells positive for SCXA in each well was quantified using the CellInsight CX5. Data was normalized to the average of 12 DMSO treated wells on the same plate using Dotmatics Studies module. The normalized averages (fold change over DMSO) of 3 replicate wells for each compound concentration were calculated. Due to solubility limitations of some of the compounds, values for higher doses were manually corrected and curve fitting and EC50 determinations were performed using Dotmatics Studies.

[5] = recombinant DYRK1A, 30 μM ATP, one hour, column head prints EC50
[6] = recombinant GSK3β, 46 μM ATP, one hour, column head prints EC50
[7] = Homo sapiens, Mesenchymal stem cells, 96 h

GSK3β kinase, sequence (P49841 whole entry): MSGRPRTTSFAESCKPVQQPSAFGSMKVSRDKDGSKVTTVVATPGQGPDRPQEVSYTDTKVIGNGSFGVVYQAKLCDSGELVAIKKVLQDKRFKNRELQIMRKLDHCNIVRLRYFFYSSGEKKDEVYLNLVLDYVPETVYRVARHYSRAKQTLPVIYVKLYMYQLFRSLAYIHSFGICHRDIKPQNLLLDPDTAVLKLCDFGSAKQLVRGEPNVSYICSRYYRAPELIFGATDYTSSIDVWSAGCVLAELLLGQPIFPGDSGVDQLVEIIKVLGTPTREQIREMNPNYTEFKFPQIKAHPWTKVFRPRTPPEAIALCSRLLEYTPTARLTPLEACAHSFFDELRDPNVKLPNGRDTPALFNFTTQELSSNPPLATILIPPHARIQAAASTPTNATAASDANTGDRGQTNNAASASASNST

| EC50 [1] | IC50 (DYRK1A kinase; [5]) | IC50 (GSK3β kinase; [6]) | EC50 [2] | EC50 (IL-6) | percent in parentheses under EC50 >100 [4] | EC50 [4] | EC50 ([1]; Homo sapiens) | IC50 (DYRK1A kinase) | IC50 (GSK3β kinase) | EC50 ([2]; Homo sapiens, 96 h) | EC50 (IL-6; Homo sapiens, PBMC) | EC50 [4, 7] | Molecule | EC50 [3] | EC50 ([3]; Homo sapiens, Fibroblast, 96 h) | inhibition at 10 µM (IL-6; Homo sapiens, PBMC) |
| --- | --- | --- | --- | --- | --- | --- | --- | --- | --- | --- | --- | --- | --- | --- | --- | --- |
| 335 nM | 4 nM | 20 nM | 473 nM | 3110 nM | (21.2%) | > 100000 nM | – | – | – | – | – | – | 5-(1,2-Dimethyl-1H-imidazol-5-yl)-N-(2-methylthiazol-5-yl)-1H-indazole-3-carboxamide [Compound 139] | 1240 nM | – | – |
| – | – | – | – | – | – | – | > 10000 nM | 378 nM | 41 nM | 7890 nM | > 10000 nM | 1380 nM | Cn1cc(-c2cc(F)c3[nH]nc(C(=O)NC4CCC(F)(F)CC4)c3c2)cn1 [Compound 16, N-(4,4-Difluorocyclohexyl)-7-fluoro-5-(1-methyl-1H-pyrazol-4-yl)-1H-indazole-3-carboxamide] | – | 1010 nM | 37.5% |
| – | – | – | – | – | – | – | > 10000 nM | 12 nM | 61 nM | > 10000 nM | > 10000 nM | 1470 nM | CC(C)CN1CC[C@H](NC(=O)c2n[nH]c3ccc(-c4cnn(C)c4)cc23)[C@H](F)C1 [Compound 30, N-((3R,4S)-3-Fluoro-1-isobutylpiperidin-4-yl)-5-(1-methyl-1H-pyrazol-4-yl)-1H-indazole-3-carboxamide] | – | > 10000 nM | – |
| – | – | – | – | – | – | – | > 10000 nM | 16 nM | 50 nM | 1840 nM | 3110 nM | 1320 nM | CC(C)CN1CC[C@H](NC(=O)c2n[nH]c3cc(F)c(-c4cnn(C)c4)cc23)[C@@H](F)C1 [Compound 34, 6-Fluoro-N-((3S,4S)-3-fluoro-1-isobutylpiperidin-4-yl)-5-(1-methyl-1H-pyrazol-4-yl)-1H-indazole-3-carboxamide] | – | 439 nM | – |
| – | – | – | – | – | – | – | 345 nM | 261 nM | 157 nM | 8280 nM | > 10000 nM | 2070 nM | CC(C)CN1CC[C@H](NC(=O)c2n[nH]c3c(F)cc(-c4cnn(C)c4)cc23)[C@@H](F)C1 [Compound 35, 7-Fluoro-N-((3S,4S)-3-fluoro-1-isobutylpiperidin-4-yl)-5-(1-methyl-1H-pyrazol-4-yl)-1H-indazole-3-carboxamide] | – | 288 nM | 9.2% |
| – | – | – | – | – | (2.9%) | – | 1460 nM | 7 nM | 41 nM | 1250 nM | 3930 nM | > 100000 nM | Cc1ncc(-c2ccc3[nH]nc(C(=O)Nc4ccc(OC5CCN(C)CC5)cc4)c3c2)s1 [Compound 82, N-(4-((1-Methylpiperidin-4-yl)oxy)phenyl)-5-(2-methylthiazol-5-yl)-1H-indazole-3-carboxamide] | – | 288 nM | – |
| – | – | – | – | – | – | – | 435 nM | 16 nM | 774 nM | 338 nM | 8780 nM | 2550 nM | CN1CCC(n2cc(-c3ccc4[nH]nc(C(=O)Nc5ccc(OC(F)F)nc5)c4c3)cn2)CC1 [Compound 88, N-(6-(Difluoromethoxy)pyridin-3-yl)-5-(1-(1-methylpiperidin-4-yl)-1H-pyrazol-4-yl)-1H-indazole-3-carboxamide] | – | 624 nM | – |
| – | – | – | – | – | – | – | 100 nM | 2 nM | 208 nM | 116 nM | 1120 nM | – | Cc1ncc(NC(=O)c2n[nH]c3ccc(-c4cnn(C5CCN(C)CC5)c4)cc23)s1 [Compound 98, 5-(1-(1-Methylpiperidin-4-yl)-1H-pyrazol-4-yl)-N-(2-methylthiazol-5-yl)-1H-indazole-3-carboxamide] | – | 119 nM | – |
| – | – | – | – | – | – | – | 840 nM | 813 nM | 68 nM | 5180 nM | 3280 nM | 2830 nM | CC(C)CN1CC[C@H](NC(=O)c2n[nH]c3ccc(-c4cnn(C5CC5)c4)cc23)[C@@H](F)C1 [Compound 99, 5-(1-Cyclopropyl-1H-pyrazol-4-yl)-N-((3 S,4S)-3-fluoro-1-isobutylpiperidin-4-yl)-1H-indazole-3-carboxamide] | – | 855 nM | – |
| – | – | – | – | – | – | – | 1020 nM | 46 nM | 43 nM | 8020 nM | > 10000 nM | 1880 nM | Cc1ncc(-c2ccc3[nH]nc(C(=O)N[C@H]4CCN(CC(C)C)C[C@@H]4F)c3c2)n1C [Compound 100, 5-(1,2-Dimethyl-1H-imidazol-5-yl)-N-((3 S,4 S)-3-fluoro-1-isobutylpiperidin-4-yl)-1H-indazole-3-carboxamide] | – | 2360 nM | 5.5% |
| – | – | – | – | – | (33.0%) | – | > 10000 nM | 408 nM | 86 nM | > 10000 nM | > 10000 nM | > 100000 nM | Cn1cc(-c2cc(F)c3[nH]nc(C(=O)NC4CCN(CC(F)F)CC4)c3c2)cn1 [Compound 101, N-(1-(2,2-Difluoroethyl)piperidin-4-yl)-7-fluoro-5-(1-methyl-1H-pyrazol-4-yl)-1H-indazole-3-carboxamide] | – | > 10000 nM | 14.1% |
| – | – | – | – | – | – | – | 685 nM | 40 nM | 14 nM | > 10000 nM | 6850 nM | 1300 nM | Cn1cc(-c2ccc3[nH]nc(C(=O)NCC(F)(F)CN4CCCC4)c3c2)cn1 [Compound 106, N-(2,2-Difluoro-3-(pyrrolidin-1-yl)propyl)-5-(1-methyl-1H-pyrazol-4-yl)-1H-indazole-3-carboxamide] | – | 795 nM | – |
| – | – | – | – | – | – | – | 3060 nM | 21 nM | 41 nM | 1870 nM | 1930 nM | 14000 nM | Cn1cc(-c2cc(F)c3[nH]nc(C(=O)Nc4ccc(CN5CCCC5)cc4)c3c2)cn1 [Compound 119, 7-Fluoro-5-(1-methyl-1H-pyrazol-4-yl)-N-(4-(pyrrolidin-1-ylmethyl)phenyl)-1H-indazole-3-carboxamide] | – | 315 nM | – |
| – | – | – | – | – | – | – | 315 nM | 1 nM | 38 nM | 414 nM | 2050 nM | – | Cn1cc(-c2cc3c(C(=O)Nc4ccc(OCCN5CCCC5)cc4)n[nH]c3cc2F)cn1 [Compound 155, 6-Fluoro-5-(1-methyl-1H-pyrazol-4-yl)-N-(4-(2-(pyrrolidin-1-yl)ethoxy)phenyl)-1H-indazole-3-carboxamide] | – | 167 nM | – |
| 216 nM | 8 nM | 182 nM | 554 nM | 3850 nM | – | – | – | – | – | – | – | – | N-(6-(Difluoromethoxy)pyridin-3-yl)-5-(1-(piperidin-4-yl)-1H-pyrazol-4-yl)-1H-indazole-3-carboxamide [Compound 87] | 672 nM | – | – |

| Molecule | EC50 [1] | IC50 (DYRK1A kinase; [5]) | IC50 (GSK3β kinase; [6]) | EC50 [2] | EC50 (IL-6) | percent in parentheses under EC50 >100 [4] | EC50 [4] | EC50 ([1]; Homo sapiens) | IC50 (DYRK1A kinase) | IC50 (GSK3β kinase) | EC50 ([2]; Homo sapiens, 96 h) | EC50 (IL-6; Homo sapiens, PBMC) | EC50 [4, 7] | EC50 [3] | EC50 ([3]; Homo sapiens, Fibroblast, 96 h) | inhibition at 10 µM (IL-6; Homo sapiens, PBMC) |
| --- | --- | --- | --- | --- | --- | --- | --- | --- | --- | --- | --- | --- | --- | --- | --- | --- |
| CN1[C@@H]2CC[C@H]1CC(NC(=O)c1n[nH]c3ccc(-c4cnn(C)c4)cc13)C2 (stereo partly drawn) [Compound 146, 5-(1-Methyl-1H-pyrazol-4-yl)-N-((1R,5S)-8-methyl-8-azabicyclo [3.2.1]octan-3-yl)-1H-indazole-3-carboxamide] | – | – | – | – | – | (35.9%) | – | 1580 nM | – | – | > 10000 nM | > 10000 nM | > 100000 nM | – | > 10000 nM | 4.7% |
